Earlier results in PMC11999338, “Factor XI localization in human deep venous thrombus and function of activated factor XI on venous thrombus formation and hemostasis” (Research and Practice in Thrombosis and Haemostasis, 2025).
Read-outs that look alike come from different tables or passages of the source.

Key:
[1] = set-up: method as in PMID 33450079; conditions: phase I, approximately 14 days in the fed state in healthy individuals; cited from earlier work
[2] = test system: inferior vena cava thrombus; set-up: method as in PMID 21614454; conditions: rabbits, i.v. administration; cited from earlier work
[3] = patients with atrial fibrillation; asundexian 50 mg, once daily; cited from earlier work
VTE = conditions: cited from earlier work
venous thrombus = test system: venous thrombus; set-up: method as in PMID 23925504; conditions: mice, cited from earlier work
[4] = patients after knee arthroplasty, phase II

## Nc1ccc(-c2nc([C@H]3CCc4cc(-c5cc(Cl)ccc5-n5cnnn5)cc(=O)n43)c(F)[nH]2)c(F)n1 (stereo in doubt) [ONO-7684]
[1]
  safety and tolerability: showed safety and tolerability

## CC(C)(C)NC(=O)N1CCN(C(=O)N2C(=O)[C@H](CCCN=C(N)N)[C@H]2C(=O)O)CC1 [BMS-262084]
[2]
  silk thread-induced thrombus in the inferior vena cava: reduced

## COc1ccc(-n2nc(C(N)=O)c3c2C(=O)N(c2ccc(N4CCCCC4=O)cc2)CC3)cc1 [apixaban]
[3]
  bleeding rate: 2.4%
VTE; [4]
  major or clinically relevant nonmajor bleeding rate: ~2%

## enoxaparin
Venous thrombus; ferric chloride-induced
  venous thrombus formation: strongly inhibited
Venous thrombus; tail cut
  bleeding time: prolonged
VTE; [4]
  major or clinically relevant nonmajor bleeding rate: ~5.9%

## osocimab: human monoclonal anti-FXI antibody
VTE; human, in vivo
  major or clinically relevant nonmajor bleeding rate: approximately 4.7%
VTE; single infusion, compared with enoxaparin, patients after knee arthroplasty
  incidence of VTE at 10 to 13 days: noninferiority
